The NIST ThermoML archive (doi:10.1021/je600554h)

Experiment: xn = mol fraction of the nth substance listed
Settings: Liquid; for viscosity: 100 kPa, Capillary tube (Ostwald / Ubbelohde) method; for mass density: 1000 kPa, Vibrating tube method

COC(C)(C)C [2-methoxy-2-methylpropane] + CCCCCCC
Settings | mass density [kg/m3] | viscosity [mPa·s]
273.15 K, x1 = 0.1004 | – | 0.515
273.15 K, x1 = 0.1042 | 705.19 | –
273.15 K, x1 = 0.1998 | – | 0.507
273.15 K, x1 = 0.2146 | 710.4 | –
273.15 K, x1 = 0.3008 | – | 0.494
273.15 K, x1 = 0.3024 | 714.67 | –
273.15 K, x1 = 0.3982 | 719.73 | –
273.15 K, x1 = 0.4024 | – | 0.485
273.15 K, x1 = 0.4996 | 725.44 | –
273.15 K, x1 = 0.5007 | – | 0.476
273.15 K, x1 = 0.5875 | 730.85 | –
273.15 K, x1 = 0.5989 | – | 0.468
273.15 K, x1 = 0.6981 | – | 0.462
273.15 K, x1 = 0.6985 | 738.08 | –
273.15 K, x1 = 0.7887 | – | 0.456
273.15 K, x1 = 0.794 | 744.8 | –
273.15 K, x1 = 0.889 | 752 | –
273.15 K, x1 = 0.898 | – | 0.448
278.15 K, x1 = 0.1004 | – | 0.484
278.15 K, x1 = 0.1042 | 700.96 | –
278.15 K, x1 = 0.1998 | – | 0.474
278.15 K, x1 = 0.2146 | 706.09 | –
278.15 K, x1 = 0.3008 | – | 0.464
278.15 K, x1 = 0.3024 | 710.3 | –
278.15 K, x1 = 0.3982 | 715.27 | –
278.15 K, x1 = 0.4024 | – | 0.456
278.15 K, x1 = 0.4996 | 720.9 | –
278.15 K, x1 = 0.5007 | – | 0.448
278.15 K, x1 = 0.5875 | 726.22 | –
278.15 K, x1 = 0.5989 | – | 0.44
278.15 K, x1 = 0.6981 | – | 0.433
278.15 K, x1 = 0.6985 | 733.34 | –
278.15 K, x1 = 0.7887 | – | 0.427
278.15 K, x1 = 0.794 | 739.96 | –
278.15 K, x1 = 0.889 | 747.05 | –
278.15 K, x1 = 0.898 | – | 0.421
283.15 K, x1 = 0.1004 | – | 0.455
283.15 K, x1 = 0.1042 | 696.72 | –
283.15 K, x1 = 0.1998 | – | 0.446
283.15 K, x1 = 0.2146 | 701.76 | –
283.15 K, x1 = 0.3008 | – | 0.437
283.15 K, x1 = 0.3024 | 705.9 | –
283.15 K, x1 = 0.3982 | 710.79 | –
283.15 K, x1 = 0.4024 | – | 0.429
283.15 K, x1 = 0.4996 | 716.32 | –
283.15 K, x1 = 0.5007 | – | 0.422
283.15 K, x1 = 0.5875 | 721.55 | –
283.15 K, x1 = 0.5989 | – | 0.414
283.15 K, x1 = 0.6981 | – | 0.408
283.15 K, x1 = 0.6985 | 728.56 | –
283.15 K, x1 = 0.7887 | – | 0.403
283.15 K, x1 = 0.794 | 735.08 | –
283.15 K, x1 = 0.889 | 742.07 | –
283.15 K, x1 = 0.898 | – | 0.397
288.15 K, x1 = 0.1004 | – | 0.429
288.15 K, x1 = 0.1042 | 692.45 | –
288.15 K, x1 = 0.1998 | – | 0.421
288.15 K, x1 = 0.2146 | 697.4 | –
288.15 K, x1 = 0.3008 | – | 0.413
288.15 K, x1 = 0.3024 | 701.47 | –
288.15 K, x1 = 0.3982 | 706.28 | –
288.15 K, x1 = 0.4024 | – | 0.405
288.15 K, x1 = 0.4996 | 711.72 | –
288.15 K, x1 = 0.5007 | – | 0.398
288.15 K, x1 = 0.5875 | 716.86 | –
288.15 K, x1 = 0.5989 | – | 0.391
288.15 K, x1 = 0.6981 | – | 0.385
288.15 K, x1 = 0.6985 | 723.76 | –
288.15 K, x1 = 0.7887 | – | 0.38
288.15 K, x1 = 0.794 | 730.17 | –
288.15 K, x1 = 0.889 | 737.04 | –
288.15 K, x1 = 0.898 | – | 0.375
293.15 K, x1 = 0.1004 | – | 0.406
293.15 K, x1 = 0.1042 | 688.15 | –
293.15 K, x1 = 0.1998 | – | 0.398
293.15 K, x1 = 0.2146 | 693.02 | –
293.15 K, x1 = 0.3008 | – | 0.39
293.15 K, x1 = 0.3024 | 697.02 | –
293.15 K, x1 = 0.3982 | 701.73 | –
293.15 K, x1 = 0.4024 | – | 0.383
293.15 K, x1 = 0.4996 | 707.09 | –
293.15 K, x1 = 0.5007 | – | 0.376
293.15 K, x1 = 0.5875 | 712.13 | –
293.15 K, x1 = 0.5989 | – | 0.369
293.15 K, x1 = 0.6981 | – | 0.364
293.15 K, x1 = 0.6985 | 718.92 | –
293.15 K, x1 = 0.7887 | – | 0.359
293.15 K, x1 = 0.794 | 725.22 | –
293.15 K, x1 = 0.889 | 731.98 | –
298.15 K, x1 = 0.1004 | – | 0.384
298.15 K, x1 = 0.1042 | 683.83 | –
298.15 K, x1 = 0.1998 | – | 0.377
298.15 K, x1 = 0.2146 | 688.62 | –
298.15 K, x1 = 0.3008 | – | 0.37
298.15 K, x1 = 0.3024 | 692.54 | –
298.15 K, x1 = 0.3982 | 697.16 | –
298.15 K, x1 = 0.4024 | – | 0.363
298.15 K, x1 = 0.4996 | 702.42 | –
298.15 K, x1 = 0.5007 | – | 0.357
298.15 K, x1 = 0.5875 | 707.37 | –
298.15 K, x1 = 0.6985 | 714.04 | –
298.15 K, x1 = 0.794 | 720.23 | –
298.15 K, x1 = 0.889 | 726.87 | –
303.15 K, x1 = 0.1004 | – | 0.365
303.15 K, x1 = 0.1042 | 679.49 | –
303.15 K, x1 = 0.1998 | – | 0.358
303.15 K, x1 = 0.2146 | 684.18 | –
303.15 K, x1 = 0.3008 | – | 0.351
303.15 K, x1 = 0.3024 | 688.02 | –
303.15 K, x1 = 0.3982 | 692.55 | –
303.15 K, x1 = 0.4024 | – | 0.344
303.15 K, x1 = 0.4996 | 697.72 | –
303.15 K, x1 = 0.5875 | 702.57 | –
303.15 K, x1 = 0.6985 | 709.11 | –
303.15 K, x1 = 0.794 | 715.19 | –
303.15 K, x1 = 0.889 | 721.72 | –
308.15 K, x1 = 0.1004 | – | 0.347
308.15 K, x1 = 0.1042 | 675.12 | –
308.15 K, x1 = 0.1998 | – | 0.34
308.15 K, x1 = 0.2146 | 679.71 | –
308.15 K, x1 = 0.3024 | 683.48 | –
308.15 K, x1 = 0.3982 | 687.91 | –
308.15 K, x1 = 0.4996 | 692.98 | –
308.15 K, x1 = 0.5875 | 697.73 | –
308.15 K, x1 = 0.6985 | 704.14 | –
308.15 K, x1 = 0.794 | 710.11 | –
313.15 K, x1 = 0.1004 | – | 0.33
313.15 K, x1 = 0.1042 | 670.71 | –
313.15 K, x1 = 0.2146 | 675.19 | –
313.15 K, x1 = 0.3024 | 678.89 | –
313.15 K, x1 = 0.3982 | 683.23 | –
313.15 K, x1 = 0.4996 | 688.2 | –
313.15 K, x1 = 0.5875 | 692.85 | –
313.15 K, x1 = 0.6985 | 699.12 | –
318.15 K, x1 = 0.1042 | 666.28 | –
318.15 K, x1 = 0.2146 | 670.65 | –
318.15 K, x1 = 0.3024 | 674.26 | –
318.15 K, x1 = 0.3982 | 678.51 | –
318.15 K, x1 = 0.4996 | 683.38 | –
318.15 K, x1 = 0.5875 | 687.92 | –
323.15 K, x1 = 0.1042 | 661.8 | –
323.15 K, x1 = 0.2146 | 666.08 | –
323.15 K, x1 = 0.3024 | 669.6 | –
323.15 K, x1 = 0.3982 | 673.75 | –
323.15 K, x1 = 0.4996 | 678.5 | –
328.15 K, x1 = 0.1042 | 657.27 | –
328.15 K, x1 = 0.2146 | 661.46 | –
328.15 K, x1 = 0.3024 | 664.89 | –
328.15 K, x1 = 0.3982 | 668.93 | –
333.15 K, x1 = 0.1042 | 652.74 | –
333.15 K, x1 = 0.2146 | 656.77 | –
333.15 K, x1 = 0.3024 | 660.13 | –
338.16 K, x1 = 0.1042 | 648.13 | –
338.16 K, x1 = 0.2146 | 652.07 | –
343.16 K, x1 = 0.1042 | 643.27 | –
